Here are results for 4 compounds from patent US12643918B2, “Thiadiazolone derivatives and their use as AMPK agonists for the treatment of diabetes and related disorders” (Betagenon AB, priority 2020, dated 2026).

Series [1] in a line: Stability of compounds in USP/phosphate buffer pH 7.40. The format is physicochemical. As to conditions: for % remaining compared to 0.0 min: Phosphate Buffer pH 7.40, 37° C., 5 μM; for Stability compared to Compound 1 (in words): mildly basic solutions (pH 7.4). The procedure: 5 μM solutions of Compounds 1, 3 and 5 in USP buffer (pH: 7.40) were prepared with 5 mM DMSO stock solutions.

In series [2] the test system is AMPK. Kind of series: Activation of AMPK: Western blot of p-T172 AMPK in INS-1E insulinoma cells. The format is cell-based. As to conditions: for ratio between p-T172 AMPK and non-phosphorylated AMPK: INS-1E cells, control = 1.00; for Phosphorylation of AMPK (T172) / AMPK activation (in words): cultured INS-1E cells, Western blot. The procedure: INS-1E cells were cultivated as described in Steneberg et al., JCI Insight. 2018; 3(12):e99114. https://doi.org/10.1172/jci.insight.99114, using 5% instead of 10% fetal bovine serum when plated for treatment.
Compound 3 was dissolved at 10 mM in DMSO and frozen at −20° C.
Compound 5 was dissolved at 10 mM in a 50:50 water/DMSO mixture, incubated for 15 minutes at room temperature in ultrasonic bath (VWR ultrasonic cleaner), and stored at room temperature.
The INS-1E cells were treated in serum free medium with increasing doses of Compounds 3 and 5 for 4 and 16 hours, respectively, in accordance with the methods described in Steneberg et al., JCI Insight. 2018; 3(12):e99114. https://doi.org/10.1172/jci.insight.99114.
Western blot analysis of the INS-1E cells was performed as described in Steneberg et. al., JCI Insight. 2018; 3(12):e99114. https://doi.org/10.1172/jci.insight.99114. The cell lysates were passed through a 30-gauge needle, ˜8-times and centrifuged for 10 min at +4° C. at 14000 rpm. Quantified values for AMPKα, and phosphorylated-T172 AMPKα, were normalized toward the quantified values for β-Actin.
In general terms: Immunoblotting shows a protein as a band on a membrane.

Series [3] is described as follows: Single dose oral pharmacokinetic study of Compounds 1 and 3 in Sprague Dawley rats. Format: in vivo. The procedure: 10.0 mL of 2% w/v methyl cellulose solution in phosphate buffer (pH 7.5) was added to a 100 mL conical flask along with 1 g of 2 mm glass beads. The solution was vigorously stirred on a magnetic stirrer. 100 mg of Compound 1 was slowly added to the solution, and the solution was vigorously stirred for approximately 1 h. The pH of the formulation was measured to be 7.49. Each formulation was freshly prepared prior to administration to the animals. The final concentration of Compound 1 in of the formulation was 10 mg/mL. The formulation was administered at 5 mL/kg body weight.
10.0 mL of 2% w/v methyl cellulose solution in phosphate buffer (pH 7.5) was added to a 100 mL of conical flask together with 1 g of 2 mm glass beads. The solution was vigorously stirred on a magnetic stirrer. 134 mg of Compound 3 was slowly added to the solution, and the solution was vigorously stirred for approximately 1 h. The pH of the formulation was measured to be 7.44. Each formulation was freshly prepared prior to administration to the animals. The final concentration of Compound 3 in the formulation was 13.4 mg/mL, which is equivalent to 10 mg/mL of Compound 1. The formulation was administered at 5 mL/kg body weight.
The doses of 50 mg/kg and 67 mg/kg b.w. for Compound 1 and Compound 3, respectively, were selected for comparison of equimolar doses.
Adult healthy male Sprague Dawley rats aged 9 to 11 weeks were used for experimentation after a minimum three days of acclimatisation. Fed state animals were administered the formulation of Compound 1 or Compound 3 orally via gavage at a dose of 50 mg/kg or 67 mg/kg body weight, respectively.
Under mild isoflurane anesthesia, blood specimens were collected by retro-orbital puncture method using capillary tubes into pre-labeled tubes containing anticoagulant (K2EDTA: 2 mg/mL blood) during the next 72 hours post-dosing, as detailed in Table 6. For blood sampling at multiple time points, the right and left eyes were used alternatively. Collected blood specimens were centrifuged at 6000 rpm, 4° C. for 10 minutes and the plasma samples were separated and stored at −80° C. until analysis.

Series [4] in a line: Solubility of compounds at different pH. The format is physicochemical. As to conditions: for solubility at 2 h / solubility at 20 h: 30 °C, thermodynamic from solid, read-out: Absolute Solubility; for solubility at 2 h: 2 hours incubation; for solubility at 20 h: 20 hours incubation. The procedure:
Approximately 5 mg of each test compound (Compounds 1 and 5) was weighed in duplicate, and each weighed sample was transferred to a separate centrifuge tube containing 5 mL of the respective buffer. All the tubes were tightly stoppered and agitated at a constant rate at 30±1° C. using an orbital shaker.
[…] 50 μL of the buffer solution from each removed tube was transferred into a 10 mL tube and made up to the mark with diluent. Then 2.5 mL of the supernatant of each tube was transferred into a 50 mL tube and made up to […].
The nominal concentration of the solution in each 50 mL tube was 5 μg/mL.
Linearity solutions of 40 ng/mL to 10000 ng/mL were plotted.

The conditions of series [5]: mice, Das et al. Reg Anesth Pain Med 2019, cited from earlier work.
[6] abbreviates: pH 9.2, aqueous buffer, Alkaline Borate Buffer, pH 9.20.
[7] abbreviates: plasma Compound 1 after oral Compound 1, 50 mg/kg b.w., fed male rats.
Setting [8] is: pH 4.5, aqueous buffer, Acetate Buffer, pH 4.50.
The mark [9] stands for this setting: pH 7.4, aqueous buffer, Phosphate Buffer, pH 7.40.

≈ marks a conversion by molar mass, not a printed value. Entries after “also recorded” stand apart in the source; their conditions may differ. Like-named read-outs stand apart in the source and are kept apart here.

`O=C(O)CCC(=O)OCn1c(=NC(=O)c2ccc(Cl)cc2)sn(Cc2ccc(Cl)cc2)c1=O` (stereo in doubt) [Compound 3, 4-({(5Z)-5-[(4-chlorobenzoyl)imino]-2-[(4-chlorophenyl)methyl]-3-oxo-1,2,4-thiadiazolidin-4-yl}methoxy)-4-oxobutanoic acid]: the “% remaining compared to 0.0 min” value was determined as 100.00% in series [1] (0.0 min); 86.96% in series [1] (15 min); 93.61% in series [1] (30 min); 88.74% in series [1] (60 min); 75.40% in series [1] (120 min). The “Stability compared to Compound 1 (in words)” value in series [1] is “comparable stability to Compound 1”. Also, the “ratio between p-T172 AMPK and non-phosphorylated AMPK” value came to 1.62 in series [2] (2.5 μM, 4 h, 0.1% DMSO); 1.88 in series [2] (5 μM, 4 h, 0.1% DMSO); 2.95 in series [2] (10 μM, 4 h, 0.1% DMSO). Moreover, in series [2], the “Phosphorylation of AMPK (T172) / AMPK activation (in words)” value is listed as “increase phosphorylation of AMPK in a dose-dependent manner; also recorded: increase phosphorylated-T172 AMPK in a dose-dependent manner”. For the same compound, in series [3] (equimolar oral doses, rats), the “Increase in systemic exposure of Compound 1 after oral Compound 3 compared to administration of Compound 1” value is recorded as “two-fold”.

As a reminder, the solubility is how much of the substance goes into solution per volume. By Cmax is commonly meant the peak of the concentration-time curve. What is called Tmax is the time at which the peak concentration occurs. With `O=C(Nc1nc(=O)n(Cc2ccc(Cl)cc2)s1)c1ccc(Cl)cc1` [Compound 1, 4-chloro-N-[2-[(4-chlorophenyl)methyl]-3-oxo-1,2,4-thiadiazol-5-yl]benzamide], in series [4] (setting [6]), the solubility at 2 h came to 29 µg/mL (≈ 76.3 µM) and the solubility at 20 h is 44 µg/mL (≈ 116 µM). The “% remaining compared to 0.0 min” value in series [1] (0.0 min) is 100.00%. Also, the “% remaining compared to 0.0 min” value in series [1] (15 min) is reported as 97.62%. The “% remaining compared to 0.0 min” value in series [1] (30 min) is 101.31%. The “% remaining compared to 0.0 min” value in series [1] (60 min) was determined as 99.41%. The “% remaining compared to 0.0 min” value in series [1] (120 min) stood at 106.18%. For the same compound, in series [3] (male, Sprague Dawley, rat, plasma, 50 mg/kg b.w., after oral Compound 1, 50 mg/kg, 1.00 h), the concentration at 1 h worked out at 4240 ng/mL. Further, the concentration at 2 h in series [3] (male, Sprague Dawley, rat, plasma, 50 mg/kg b.w., after oral Compound 1, 50 mg/kg, 2.00 h) worked out at 7990 ng/mL. In series [3] (male, Sprague Dawley, rat, plasma, 50 mg/kg b.w., after oral Compound 1, 50 mg/kg, 4.00 h), this compound showed a concentration at 4 h of 14000 ng/mL. In series [3] (male, Sprague Dawley, rat, plasma, 50 mg/kg b.w., after oral Compound 1, 50 mg/kg, 6.00 h), this compound returned a concentration at 6 h of 17000 ng/mL. Besides, the concentration at 8 h in series [3] (male, Sprague Dawley, rat, plasma, 50 mg/kg b.w., after oral Compound 1, 50 mg/kg, 8.00 h) was determined as 19300 ng/mL. In series [3] (male, Sprague Dawley, rat, plasma, 50 mg/kg b.w., after oral Compound 1, 50 mg/kg, 24.00 h), this compound displayed a concentration at 24 h of 9440 ng/mL. The concentration at 0 h in series [3] (male, Sprague Dawley, rat, plasma, after oral Compound 1, 50 mg/kg, 0.00 h) turned out to be 0 ng/mL. In series [3] (male, Sprague Dawley, rat, plasma, after oral Compound 1, 50 mg/kg, 0.25 h), this compound came in with a concentration at 0.25 h of 620 ng/mL. For the same compound, in series [3] (male, Sprague Dawley, rat, plasma, after oral Compound 1, 50 mg/kg, 0.50 h), the concentration at 0.5 h was found to be 1980 ng/mL. This compound also showed a concentration at 48 h in series [3] (male, Sprague Dawley, rat, plasma, after oral Compound 1, 50 mg/kg, 48.00 h) of 720 ng/mL. Besides, the concentration at 72 h in series [3] (male, Sprague Dawley, rat, plasma, after oral Compound 1, 50 mg/kg, 72.00 h) is 0 ng/mL. In series [3] (setting [7]), this compound gave an AUCextrap of 2.33 ± 1.74%, an AUCinf of 458.31 ± 154.77 µg·h/mL, an AUClast of 449.40 ± 157.75 µg·h/mL and a Cmax of 19600 ± 5540 ng/mL. In series [3] (setting [7]), the MRTlast is recorded as 14.78 ± 0.68 h, the T1/2 is given as 8.42 ± 1.47 h and the Tmax was found to be 7.33 ± 1.16 h. Also, the “Effect on pain (in words)” value in series [5] (listed as compound of formula II) is recorded as “effective at treating pain; also recorded: capable of treating pain”.

Take `O=C(/N=c1\sn(Cc2ccc(Cl)cc2)c(=O)n1COP(=O)([O-])[O-])c1ccc(Cl)cc1.[Na+].[Na+]` [Compound 5, disodium {(5Z)-5-[(4-chlorobenzoyl)imino]-2-[(4-chlorophenyl)methyl]-3-oxo-1,2,4-thiadiazolidin-4-yl}methyl phosphate]: the solubility at 2 h worked out at 15 µg/mL in series [4] (setting [8]), 119 µg/mL in series [4] (setting [9]), 720 µg/mL in series [4] (setting [6]) and 419 µg/mL in series [4] (Ultrapure water). Further, the solubility at 20 h in series [4] (setting [8]) came out at 15 µg/mL; in series [4] (setting [9]), 98 µg/mL; in series [4] (setting [6]), 1240 µg/mL; in series [4] (Ultrapure water), 36 µg/mL. Also, the “Solubility relative to Compound 1” value in series [4] (basic solution) is “up to 30 times”. Also, the “Solubility compared to Compound 1 (in words)” value in series [4] (basic solutions (pH>7) and mildly acidic conditions) is on record as “higher solubility compared to Compound 1”. Besides, the “% remaining compared to 0.0 min” value was determined as 100.00% in series [1] (0.0 min); 103.92% in series [1] (15 min); 107.58% in series [1] (30 min); 107.88% in series [1] (60 min); 97.30% in series [1] (120 min). In addition, the “Stability compared to Compound 1 (in words)” value in series [1] was “comparable stability to Compound 1”. For the same compound, the “ratio between p-T172 AMPK and non-phosphorylated AMPK” value was determined as 1.29 in series [2] (2.5 μM, 16 h, 0.05% DMSO); 1.62 in series [2] (5 μM, 16 h, 0.05% DMSO); 3.21 in series [2] (10 μM, 16 h, 0.05% DMSO). Also, in series [2] (phosphate), the “Phosphorylation of AMPK (T172) / AMPK activation (in words)” value is recorded as “increase phosphorylation of AMPK in a dose-dependent manner; also recorded: increase phosphorylated-T172 AMPK in a dose-dependent manner”.

As for `CN(C)C(=N)N=C(N)N` [metformin], in series [5], the “Effect on pain (in words)” value is on record as “effective at treating pain”.
